Reference: the supplement of paper PMC11451515

Test system: SEM cells
Assay: cell viability relative to DMSO control; higher = less cytotoxic
Conditions: 48 h
In short: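 Leukemia cells (NOMO1 or SEM, 500 cells/well; P12-Ichikawa, 1000 cells/well) were seeded in 5 μl in 1536-well plates after at least four passages of adaptation to each medium. They received library compounds in DMSO by pin dosing, 11 threefold points from 47 μM to 0.79 nM. Luminescence with CellTiter-Glo One was read after 48 h at 37°C. Viability is stated per plate relative to DMSO wells, with cell-free wells as background.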

[1] = HPLM + 10% dialyzed FBS, 0.000781 µM
[2] = HPLM + 10% dialyzed FBS, 0.00234 µM
[3] = HPLM + 10% dialyzed FBS, 0.00702 µM
[4] = HPLM + 10% dialyzed FBS, 0.0211 µM
[5] = HPLM + 10% dialyzed FBS, 0.0632 µM
[6] = HPLM + 10% dialyzed FBS, 0.19 µM
[7] = HPLM + 10% dialyzed FBS, 0.569 µM
[8] = HPLM + 10% dialyzed FBS, 1.71 µM
[9] = HPLM + 10% dialyzed FBS, 5.12 µM
[10] = HPLM + 10% dialyzed FBS, 15.4 µM
[11] = HPLM + 10% dialyzed FBS, 46.1 µM
[12] = RPMI 5 mM glucose + 10% FBS, 0.000781 µM
[13] = RPMI 5 mM glucose + 10% FBS, 0.00234 µM
[14] = RPMI 5 mM glucose + 10% FBS, 0.00702 µM
[15] = RPMI 5 mM glucose + 10% FBS, 0.0211 µM
[16] = RPMI 5 mM glucose + 10% FBS, 0.0632 µM
[17] = RPMI 5 mM glucose + 10% FBS, 0.19 µM
[18] = RPMI 5 mM glucose + 10% FBS, 0.569 µM
[19] = RPMI 5 mM glucose + 10% FBS, 1.71 µM
[20] = RPMI 5 mM glucose + 10% FBS, 5.12 µM
[21] = RPMI 5 mM glucose + 10% FBS, 15.4 µM
[22] = RPMI 5 mM glucose + 10% FBS, 46.1 µM
[23] = RPMI 5 mM glucose + 10% dialyzed FBS, 0.000781 µM
[24] = RPMI 5 mM glucose + 10% dialyzed FBS, 0.00234 µM
[25] = RPMI 5 mM glucose + 10% dialyzed FBS, 0.00702 µM
[26] = RPMI 5 mM glucose + 10% dialyzed FBS, 0.0211 µM
[27] = RPMI 5 mM glucose + 10% dialyzed FBS, 0.0632 µM
[28] = RPMI 5 mM glucose + 10% dialyzed FBS, 0.19 µM
[29] = RPMI 5 mM glucose + 10% dialyzed FBS, 0.569 µM
[30] = RPMI 5 mM glucose + 10% dialyzed FBS, 1.71 µM
[31] = RPMI 5 mM glucose + 10% dialyzed FBS, 5.12 µM
[32] = RPMI 5 mM glucose + 10% dialyzed FBS, 15.4 µM
[33] = RPMI 5 mM glucose + 10% dialyzed FBS, 46.1 µM

| Structure (SMILES) | cell viability [1] [%] | cell viability [2] [%] | cell viability [3] [%] | cell viability [4] [%] | cell viability [5] [%] | cell viability [6] [%] | cell viability [7] [%] | cell viability [8] [%] | cell viability [9] [%] | cell viability [10] [%] | cell viability [11] [%] | cell viability [12] [%] | cell viability [13] [%] | cell viability [14] [%] | cell viability [15] [%] | cell viability [16] [%] | cell viability [17] [%] | cell viability [18] [%] | cell viability [19] [%] | cell viability [20] [%] | cell viability [21] [%] | cell viability [22] [%] | cell viability [23] [%] | cell viability [24] [%] | cell viability [25] [%] | cell viability [26] [%] | cell viability [27] [%] | cell viability [28] [%] | cell viability [29] [%] | cell viability [30] [%] | cell viability [31] [%] | cell viability [32] [%] | cell viability [33] [%] |
| --- | --- | --- | --- | --- | --- | --- | --- | --- | --- | --- | --- | --- | --- | --- | --- | --- | --- | --- | --- | --- | --- | --- | --- | --- | --- | --- | --- | --- | --- | --- | --- | --- | --- |
| COc1ccc(-c2nc(N3CCOCC3)c3sc(CN(C)c4ncc(C(=O)NO)cn4)cc3n2)cn1 | 88.4 | 101 | 67.8 | 34.5 | 6.86 | 6.43 | 6.72 | 6.14 | 6.01 | 5.89 | 4.98 | 90.5 | 83.6 | 49.9 | 20.5 | 6.31 | 6.48 | 5.87 | 5.83 | 6.2 | 5.41 | 3.98 | 97 | 108 | 78.3 | 37.7 | 7.5 | 7.3 | 6.64 | 6.58 | 5.98 | 6.08 | 4.38 |
| Cn1c(CNc2ccc(C(=N)N)cc2)nc2cc(C(=O)N(CCC(=O)O)c3ccccn3)ccc21 | 87.6 | 96.3 | 95.2 | 106 | 101 | 103 | 102 | 117 | 104 | 121 | 116 | 73.1 | 99.2 | 98.6 | 97.6 | 102 | 96.6 | 99.6 | 93.2 | 95.6 | 110 | 103 | 65.6 | 98 | 95.8 | 114 | 110 | 104 | 97.7 | 122 | 120 | 118 | 119 |
| Cc1cccc(Nc2nc(-c3ccncc3)cs2)c1 | 86.5 | 115 | 88.8 | 98.3 | 99.5 | 126 | 104 | 117 | 118 | 112 | 59.5 | – | – | – | – | – | – | – | – | – | – | – | 92.4 | 141 | 84 | 116 | 109 | 125 | 134 | 130 | 123 | 96.3 | 46.2 |
| CCC(C)(Oc1ccc(C2(c3ccc(OC(C)(CC)C(=O)O)cc3)CCCCC2)cc1)C(=O)O (stereo not given) | 103 | 96.8 | 108 | 103 | 109 | 108 | 105 | 108 | 101 | 109 | 77.9 | 103 | 101 | 119 | 113 | 108 | 111 | 109 | 91.3 | 104 | 102 | 77.7 | 117 | 101 | 99.1 | 108 | 107 | 102 | 118 | 110 | 114 | 113 | 86.6 |
| CN[C@@H]1[C@H](O)[C@H](NC)[C@H]2O[C@@]3(O)C(=O)C[C@@H](C)O[C@H]3O[C@@H]2[C@H]1O | 119 | 125 | 122 | 123 | 121 | 120 | 118 | 122 | 113 | 115 | 109 | 120 | 110 | 126 | 117 | 115 | 113 | 123 | 110 | 104 | 104 | 104 | – | – | – | – | – | – | – | – | – | – | – |
| CC(C)CC(=O)N[C@H](C(=O)N[C@H](C(=O)N[C@@H](CC(C)C)[C@@H](O)CC(=O)N[C@@H](C)C(=O)N[C@@H](CC(C)C)[C@@H](O)CC(=O)O)C(C)C)C(C)C | 94.4 | 89.1 | 109 | 103 | 74.7 | 95.9 | 101 | 108 | 97.7 | 96.6 | 14.5 | 82.7 | 96.7 | 115 | 94.7 | 68.1 | 104 | 106 | 99 | 98.7 | 89.6 | 10.4 | 93.5 | 116 | 92.2 | 93.4 | 73.1 | 110 | 95.5 | 99.1 | 94.9 | 91.6 | 10.9 |
| O=C1c2c(O)ccc(O)c2C(=O)c2c(NCCNCCO)ccc(NCCNCCO)c21 | 77.4 | 81 | 88.6 | 105 | 95 | 96.5 | 5.15 | 14.7 | 4.46 | 3.34 | 3.77 | 88.3 | 99.7 | 127 | 116 | 97.5 | 79.1 | 5.41 | 10.6 | 4.48 | 2.93 | 3.79 | 90 | 89 | 96.4 | 95.7 | 97.9 | 99 | 4.03 | 15.7 | 4.3 | 2.61 | 3.1 |
| Cn1cnc2c1c(=O)[nH]c(=O)n2C | 97.5 | 110 | 103 | 106 | 116 | 115 | 112 | 107 | 94.1 | 91 | 5.76 | 92.7 | 85.2 | 106 | 101 | 93.2 | 107 | 93 | 94.3 | 79.6 | 61.8 | 5.77 | 95.3 | 99 | 90.9 | 108 | 111 | 94.3 | 108 | 105 | 96.8 | 79.9 | 6.67 |
| Nc1ncnc2c1c(-c1cnc3[nH]ccc3c1)nn2C1CCCC1 | 111 | 113 | 127 | 122 | 113 | 105 | 95.2 | 69.6 | 51.1 | 36.2 | 11 | 81.9 | 76.3 | 85.1 | 95.4 | 94.8 | 73.6 | 68.8 | 49.2 | 33.8 | 24.7 | 6.03 | 123 | 120 | 125 | 114 | 129 | 112 | 99.6 | 73.8 | 59.5 | 42.6 | 6.97 |
| C\C1=C(\C=C(C#N)/C(=O)N1)C2=C[N]3C=CN=C3C=C2 | 66.9 | 77.5 | 81.6 | 75 | 82.2 | 72.6 | 71.8 | 87.4 | 91.4 | 83.3 | 94.7 | 73.7 | 88 | 82.8 | 96.8 | 90.4 | 73.6 | 94.6 | 85.9 | 102 | 99.2 | 89.6 | 79.6 | 72.2 | 87.6 | 88 | 81.8 | 77.7 | 86.6 | 98.8 | 86.9 | 93.4 | 94 |
| CC[C@H](C)[N]1C=C(C)C2=C1C=C(C=C2C(=O)NC\C3=C(C)\C=C(\C)NC3=O)C4=CC=C(N=C4)N5CCNCC5 | 106 | 104 | 112 | 117 | 114 | 106 | 112 | 117 | 113 | 113 | 99 | 83.5 | 105 | 108 | 102 | 113 | 108 | 99 | 109 | 96.5 | 95 | 101 | 101 | 120 | 115 | 108 | 110 | 103 | 107 | 100 | 107 | 116 | 104 |
| N[C@H](CSC(c1ccccc1)(c1ccccc1)c1ccccc1)C(=O)O | 105 | 99.3 | 113 | 99.4 | 117 | 97 | 102 | 94 | 69.4 | 54.9 | 14.7 | 44.8 | 74.6 | 75.2 | 68.2 | 71.1 | 60.9 | 69.8 | 52.3 | 47.2 | 18.7 | 2.79 | 100 | 105 | 122 | 86.5 | 106 | 95.6 | 94 | 82.1 | 60.8 | 40.1 | 12.8 |
| CN1CCN(c2ccc([N+](=O)[O-])c3no[n+]([O-])c23)CC1 | 93.2 | 89 | 87.3 | 94.7 | 81.1 | 95.2 | 97 | 85.9 | 88.7 | 82.2 | 52.4 | 84.6 | 103 | 91.4 | 101 | 105 | 106 | 87.4 | 101 | 110 | 98.4 | 69.1 | 85.9 | 97.3 | 93.4 | 89.3 | 85.2 | 99.4 | 99.1 | 93.3 | 92.4 | 76.1 | 46.1 |
| N#Cc1c(NC(=O)c2cccc3ccccc23)sc2c1CCCC2 | 108 | 115 | 116 | 125 | 125 | 105 | 66 | 23.2 | 24.1 | 19.7 | 23 | 119 | 119 | 130 | 125 | 119 | 119 | 48.4 | 20.3 | 16.9 | 15.6 | 17.9 | 122 | 125 | 126 | 137 | 124 | 118 | 53.7 | 25.5 | 26.2 | 18 | 26.1 |
